These are literature values, as cited in patent publication US7456141B2, “Photo resist stripper composition” (Echem Solutions Corp., priority 2004, dated 2008).

Data set [1] has as its system Rat.
The conditions of data set [2]: for Flash Point / Ignition Point / Vaporizing Speed: Table 2; for Steam Pressure: at 20 ° C. (mmHg/° C. [sic]).
For data set [3] the following is noted: Table 3.
The subject of data set [4] is Rat. The source holds these as a separate data set.
The conditions of data set [5]: for TWA: Time Weighted Average, eight hours a day and 40 hours a week; for STEL: Short Time Exposure Limit, 15 minutes.
Data set [6] deals with Rat. This is another data set of the same source.
For data set [7] the following is noted: Table 3, route and species not given; in mg/kg.

Read-outs that look alike come from different tables or passages of the source.

In the case of `COCC(C)OC(C)=O` (centres unmarked) [PGMEA, Propylene glycol mono-methyl ether acetate], the LD50/Hypodermic/Rat entry in the data set on Rat [1] (in vivo) was “LD50/Hypodermic/Rat: 5000 mg/kg”. Besides, in [2], the “Flash Point” value was 42 °C, the “Ignition Point” value is 354 °C, the “Vaporizing Speed” value is listed as 0.34 and the “Steam Pressure” value is 3.8/20 mmHg. Moreover, in data set [3], the “Flash Point” value was 47 °C, the “Vaporizing Point” value was 3.8 °C and the Viscosity is 1.1 cst. In addition, in the data set on Rat [4] (6 hrs.), the LC50/Inhale/Rat result was “LC50/Inhale/Rat: 4345 ppm (6 hrs.)”. Besides, in data set [5], the TWA is recorded as 100 ppm. Moreover, the LD50/Oral/Rat entry in the data set with Rat [6] is listed as “LD50/Oral/Rat: 8532 mg/kg”. Further, in [7], the LD50 is on record as 8532.

In the case of `CC(=O)CC(C)C` [MIBK, Methyl isobutyl ketone], in data set [2], the “Flash Point” value is 18 °C, the “Ignition Point” value was 449 °C, the “Vaporizing Speed” value was 1.57 and the “Steam Pressure” value is on record as 16/20 mmHg. In the data set on Mouse, the LC50/Inhale/Mouse result is “LC50/Inhale/Mouse: 23300 mg/m^3”. The LC50/Inhale/Rat result in the data set on Rat [4] (exposure time not given) is recorded as “LC50/Inhale/Rat: 4000 ppm”. Moreover, in data set [5], the STEL was 75 ppm and the TWA was 50 ppm. Also, in the data set on Rabbit, the LD50/Hypodermic/Rabbit entry is given as “LD50/Hypodermic/Rabbit: 20 mg/kg”.

With `CC(=O)OCCC(C)C` [IAAc, Isoamyl acetate], in data set [3], the “Flash Point” value was 25 °C and the “Vaporizing Point” value is 4 °C. Further, in [7], the LD50 is reported as 16600.

For `CCCCOC(C)=O` [nBAc, n-Butyl Acetate], in data set [2], the “Flash Point” value was 22 °C, the “Ignition Point” value was 425 °C, the “Vaporizing Speed” value is recorded as 0.98 and the “Steam Pressure” value is reported as 7.8/20 mmHg. Further, in data set [3], the “Flash Point” value was 22 °C, the “Vaporizing Point” value was 15 °C and the Viscosity was 0.7 cst. Also, the LC50/Inhale/Rat entry in the data set with Rat [4] (4 hrs.) was “LC50/Inhale/Rat: 2000 ppm (4 hrs.)”. In data set [5], the STEL is 200 ppm and the TWA was 150 ppm. Besides, in [7], the LD50 is reported as 13100.

`O=C1CCCCC1` [ANONE, cyclohexanone]: in data set [3], the “Flash Point” value was 44 °C, the “Vaporizing Point” value was 4 °C and the Viscosity is on record as 2.2 cst. Also, in data set [7], the LD50 is listed as 1535.

For `COCC(C)O` (centres unmarked) [PGME, propylene glycol mono-methyl ether], the LD50/Hypodermic/Rat result in the data set on Rat [1] (hypodermic) is given as “LD50/Hypodermic/Rat: 13000 mg/kg”. Further, in data set [2], the “Flash Point” value is 32 °C, the “Vaporizing Speed” value is 0.66 and the “Steam Pressure” value is 6.7/20 mmHg. Besides, in data set [3], the “Flash Point” value is 32 °C, the “Vaporizing Point” value is 11.8 °C and the Viscosity is 1.8 cst. In addition, the LC50/Inhale/Rat result with Rat [4] (7 hrs.) is reported as “LC50/Inhale/Rat: 15000 ppm (7 hrs.)”. In data set [5], the TWA is listed as 100 ppm. In the data set with Rat [6], the LD50/Oral/Rat result is reported as “LD50/Oral/Rat: 6600 mg/kg”. Besides, the LD50 in [7] is on record as 6600.
